Experimental data reported in patent publication US6359130B1, “Bridged indenopyrrolocarbazoles” (Cephalon, Inc., priority 1998, dated 2002).
pIC50: −log10 of the molar value.

Key:
[1] = molecular target: T1, VEGF receptor (human flk-1, KDR, VEGFR2) kinase domain (Homo sapiens, UniProt P35968); assay: Inhibition of VEGF receptor kinase activity (ELISA); type: biochemical; conditions: 40 μM ATP; read-out: VEGFR kinase IC50
T1 construct: VEGF receptor (human flk-1, KDR, VEGFR2) kinase domain; made in house; host or cells: baculovirus expression system
T1 sequence (P35968 834-1162 limits assumed): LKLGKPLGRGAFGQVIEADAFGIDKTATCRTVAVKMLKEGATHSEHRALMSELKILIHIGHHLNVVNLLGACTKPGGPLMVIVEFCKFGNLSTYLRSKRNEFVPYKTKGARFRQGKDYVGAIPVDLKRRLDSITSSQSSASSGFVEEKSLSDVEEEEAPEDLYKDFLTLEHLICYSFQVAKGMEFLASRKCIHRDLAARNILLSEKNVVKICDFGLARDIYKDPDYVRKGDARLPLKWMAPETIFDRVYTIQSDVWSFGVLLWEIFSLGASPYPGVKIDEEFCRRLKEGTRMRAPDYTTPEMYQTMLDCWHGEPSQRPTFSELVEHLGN
Protocol: Bridged indenopyrrolocarbazole compounds were examined for their inhibitory effects on the kinase activity of baculovirus-expressed VEGF receptor (human flk-1, KDR, VEGFR2) kinase domain using the procedure described for the trkA kinase ELISA assay described above. The kinase reaction mixture, consisting of 50 mM Hepes, pH 7.4, 40 μM ATP, 10 mM MnCl2, 0.1% BSA, 2% DMSO, and various concentrations of inhibitor, was transferred to PLC-γ/GST-coated plates. VEGFR kinase was added and the reaction was allowed to proceed for 15 min. at 37° C. Detection of phosphorylated product was accomplished by addition of anti-phosphotyrosine antibody (UBI). A secondary enzyme-conjugated antibody was delivered to capture the antibody-phosphorylated PLC-γ/GST complex. The activity of the bound enzyme was measured via an amplified detection system (Gibco-BRL). Inhibition data were analyzed using the sigmoidal dose-response (variable slope) equation in GraphPad Prism.

[2] = system: protein kinase C (mixed isozymes of a, b, g); assay: Inhibition of protein kinase C activity (Millipore Multiscreen TCA in-plate assay); type: biochemical; conditions: for PKC % Inh. @ 1 uM: values in parentheses; for pIC50: read-out: PKC IC50
Protocol: Protein kinase C activity was assessed using the Millipore Multiscreen TCA “in-plate” assay as described in Pitt, A. M. and Lee, C. (J. Biomol. Screening, 1: 47-51, 1996). Assays were performed in 96-well Multiscreen-DP plates (Millipore). Each […] assay mixture contained 20 mM Hepes, pH 7.4, 10 mM MgCl2, 2.5 mM EGTA, 2.5 mM CaCl2, 80 mg/ml phosphatidyl serine, 3.2 mg/ml diolein, 200 mg/ml histone H-1(Fluka), 5 mM [γ-^32P]ATP, 1.5 ng protein kinase C (UBI; mixed isozymes of a, b, g), 0.1% BSA, 2% DMSO, and test bridged fused pyrrolocarbazole compound. The reaction was allowed to proceed for 10 min at 37° C., then quenched by adding ice cold 50% trichloroacetic acid. The plates were allowed to equilibrate for 30 min at 4° C., then washed with ice cold 25% TCA. Scintillation cocktail was added to the plates, and the radioactivity was determined using Wallac MicroBeta 1450 PLUS scintillation counter. The IC50 values were calculated by fitting the data to the sigmoidal dose-response (variable slope) equation in GraphPad Prism.

[3] = molecular target: T2, baculovirus-expressed human trkA cytoplasmic domain (Homo sapiens, UniProt P04629); assay: Inhibition of trkA tyrosine kinase activity (ELISA-based assay); type: biochemical; conditions: for pIC50: 40 μM ATP; for inhibition at 0.3 µM: read-out: trkA % inh @ 300 nM
T2 construct: baculovirus-expressed human trka cytoplasmic domain; made in house; host or cells: baculovirus expression system
T2 sequence (P04629 440-796 limits assumed): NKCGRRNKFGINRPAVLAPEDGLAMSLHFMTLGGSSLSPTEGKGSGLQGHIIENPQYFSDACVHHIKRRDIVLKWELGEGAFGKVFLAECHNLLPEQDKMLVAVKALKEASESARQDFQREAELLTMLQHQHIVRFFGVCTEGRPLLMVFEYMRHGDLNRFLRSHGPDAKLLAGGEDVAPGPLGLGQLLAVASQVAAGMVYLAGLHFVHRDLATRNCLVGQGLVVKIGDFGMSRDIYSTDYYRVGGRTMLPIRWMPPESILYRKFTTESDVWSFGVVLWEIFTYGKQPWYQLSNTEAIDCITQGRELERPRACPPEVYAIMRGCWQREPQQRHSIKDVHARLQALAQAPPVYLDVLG
Protocol: Selected bridged indenopyrrolocarbazole compounds were tested for their ability to inhibit the kinase activity of baculovirus-expressed human trka cytoplasmic domain using an ELISA-based assay as previously described (Angeles et al., Anal. Biochem. 236: 49-55, 1996). Briefly, the 96-well microtiter plate was coated with substrate solution (recombinant human phospholipase C-γl/glutathione S-transferase fusion protein (Rotin et al., EMBO J., 11: 559-567, 1992). Inhibition studies were performed in 100 μl assay mixtures containing 50 mM Hepes, pH 7.4, 40 μM ATP, 10 mM MnCl2, 0.1% BSA, 2% DMSO, and various concentrations of inhibitor. The reaction was initiated by addition of trkA kinase and allowed to proceed for 15 minutes at 37° C. An antibody to phosphotyrosine (UBI) was then added, followed by a secondary enzyme-conjugated antibody, alkaline phosphatase-labelled goat anti-mouse IgG (Bio-Rad). The activity of the bound enzyme was measured via an amplified detection system (Gibco-BRL). Inhibition data were analyzed using the sigmoidal dose-response (variable slope) equation in GraphPad Prism.

[4] = molecular target: T3, PDGFβ receptor kinase domain (Homo sapiens, UniProt P09619); assay: Inhibition of PDGF receptor kinase activity (ELISA); type: biochemical; conditions: for PDGFR % Inh. @ 1 μM / inhibition at 1 µM: values in parentheses; for pIC50: 20 μM ATP, read-out: PDGFR IC50; for inhibition at 1 µM: read-out: PDGFR % Inh. @ 1 μM
T3 construct: baculovirus-expresses PDGFβ receptor kinase domain; made in house; host or cells: baculovirus expression system
T3 sequence (P09619 600-962 limits assumed): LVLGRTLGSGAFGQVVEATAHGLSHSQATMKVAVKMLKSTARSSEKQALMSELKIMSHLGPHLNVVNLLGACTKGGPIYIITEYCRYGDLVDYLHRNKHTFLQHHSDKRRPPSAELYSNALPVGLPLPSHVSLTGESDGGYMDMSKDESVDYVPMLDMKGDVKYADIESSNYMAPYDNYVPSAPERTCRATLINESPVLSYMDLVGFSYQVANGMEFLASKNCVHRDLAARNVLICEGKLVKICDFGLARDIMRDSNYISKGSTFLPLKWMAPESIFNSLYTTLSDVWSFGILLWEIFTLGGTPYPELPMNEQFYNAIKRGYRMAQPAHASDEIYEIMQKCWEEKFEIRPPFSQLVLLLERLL
Protocol: Bridged indenopyrrolocarbazole compounds were examined for their inhibitory effects on the kinase activity of baculovirus-expresses PDGFβ receptor kinase domain using the trkA kinase ELISA described above. Assays were performed in substrate (PLC-γ/GST)-coated 96-well microtiter plates. Each 100-μl reaction mixture contained 50 mM HEPES, pH 7.4, 20 μM ATP, 10 mM MnCl2, 0.1% BSA, 2% DMSO, and various concentrations of inhibitor. The reaction was initiated by addition of prephosphorylated recombinant human enzyme (10 ng/ml PDGFRβ) and allowed to proceed for 15 minutes at 37° C. The prephosphorylated enzyme was prepared prior to use by incubation of the kinase in buffer containing 20 μM ATP and 10 mM MnCl2 for 1 hour at 4° C. Detection of phosphorylated product was done by adding horseradish peroxidase (HRP)-conjugated anti-phosphotyrosine antibody (UBI). The HRP substrate solution containing 3, 3′-5, 5′-tetramethylbenzidine and hydrogen peroxide was later added and the plates were incubated for 10 minutes at room temperature. The reaction was quenched with acid and the resulting absorbance was read at 450 nm using a Microplate Bio-kinetics Reader (Bio-Tek Instrument EL 312e). Inhibition data were analyzed using the sigmoidal dose-response (variable slope) equation in GraphPad Prism.

[5] = molecular target: T4, trkA in NIH3T3 cells transfected with trkA (Homo sapiens, UniProt P04629); assay: Inhibition of NGF-stimulated trk phosphorylation in a whole cell preparation; type: cell-based; design: key to Inhibition Score at 100 nM: 0=no decrease; 1=1-25%; 2=26-49%; 3=50-75%; 4=76-100%; conditions: NGF 10 ng/ml, percent decrease in trk protein band; for Inhibition Score at 100 nM: 100 nM compound; for Inhibition Score at 1000 nM: 1000 nM compound
T4 construct: expressed in transfected cells; host or cells: NIH3T3 cells
T4 sequence (P04629 33-796): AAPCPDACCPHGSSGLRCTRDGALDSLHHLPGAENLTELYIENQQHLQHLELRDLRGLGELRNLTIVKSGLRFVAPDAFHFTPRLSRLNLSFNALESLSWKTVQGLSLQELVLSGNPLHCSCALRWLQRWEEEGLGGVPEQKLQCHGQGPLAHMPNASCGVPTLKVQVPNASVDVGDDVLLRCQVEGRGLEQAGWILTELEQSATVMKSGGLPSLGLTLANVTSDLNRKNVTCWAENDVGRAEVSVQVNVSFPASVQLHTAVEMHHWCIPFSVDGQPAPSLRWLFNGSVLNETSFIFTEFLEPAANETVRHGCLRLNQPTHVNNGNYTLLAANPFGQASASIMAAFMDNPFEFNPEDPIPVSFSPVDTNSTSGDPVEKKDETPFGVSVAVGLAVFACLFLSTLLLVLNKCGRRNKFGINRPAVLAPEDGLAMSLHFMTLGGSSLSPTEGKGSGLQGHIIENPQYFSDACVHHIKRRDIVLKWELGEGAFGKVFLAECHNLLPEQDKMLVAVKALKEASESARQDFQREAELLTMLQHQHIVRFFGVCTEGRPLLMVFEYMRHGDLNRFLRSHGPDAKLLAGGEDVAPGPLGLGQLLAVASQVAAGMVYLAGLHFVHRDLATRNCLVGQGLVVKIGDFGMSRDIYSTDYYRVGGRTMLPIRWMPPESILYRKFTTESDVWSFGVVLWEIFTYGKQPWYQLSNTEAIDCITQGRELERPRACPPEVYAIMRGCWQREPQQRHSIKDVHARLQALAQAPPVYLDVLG
Protocol: NIH3T3 cells transfected with trkA were grown in 100 mm dishes. Subconfluent cells were serum-starved by replacing media with serum-free 0.05% BSA-DMEM containing compound (100 nM and 1 μM) or DMSO (added to controls) for one hour at 37° C. NGF (Harlan/Bioproducts for Science) was then added to the cells at a concentration of 10 ng/ml for 5 minutes. Cells were lysed in buffer containing detergent and protease inhibitors. Clarified cell lysates were normalized to protein using BCA method and immunoprecipitated with anti-trk antibody. Polyclonal anti-trk antibody was prepared against a peptide corresponding to the 14 amino acids at the carboxy terminus of trk (Martin-Zanca et al., Mol. Cell. Biol. 9: 24-33, 1989). The immune complexes were collected on Protein A Sepharose beads (Sigma Chem. Co., St. Lois, Mo.), separated by SDS polyacrylamide gel electrophoresis (SDS-PAGE), and transferred to a polyvinylidene difluoride (PVDF) membrane. The membrane was immunoblotted with anti-phosphotyrosine antibody (UBI), followed by incubation with horseradish peroxidase coupled goat anti-mouse IgG (Bio-Rad Laboratories, Hercules, Calif.). Phosphorylated proteins were visualized using ECL (Amersham Lite Science, Inc., Arlington Heights, Ill.). The area of the trk protein band was measured and compared to NGF-stimulated control. The inhibition scoring system used, based on percent decrease in trk protein band, was as follows: 0=no decrease; 1=1-25%; 2=26-49%; 3=50-75%; 4=76-100% Results are shown below in Table 3.

Spinal Cord ChAT = assay: Enhancement of spinal cord ChAT activity in dissociated rat embryonic spinal cord culture; type: cell-based
Protocol: For example, In these assays, a compound was directly added to a dissociated spinal cord culture. Compounds which increased ChAT activity at least 120% of the control activity were considered active.
Methods: Fetal rat spinal cord cells were dissociated, and experiments were performed as described (Smith et al., J. Cell Biology 101:1608-1621(1985); Glicksman et al., J. Neurochem. 61:210-221(1993) ). Dissociated cells were prepared from spinal cords dissected from rats (embryonic day 14-15) by standard trypsin dissociation techniques (Smith et al., supra.). Cells were plated at 6×10^5 cells/cm^2 on poly-1-ornithine coated plastic tissue culture wells in serum-free N2 medium supplemented with 0.05% bovine serum albumin (BSA) (Bottenstein et al., PNAS USA 76:514-517 (1979) ). Cultures were incubated at 37° C. in a humidified atmosphere of 5% CO2/95% air for 48 hours. ChAT activity was measured after 2 days in vitro using a modification of the Fonnum procedure (Fonnum, J. Neurochem. 24:407-409 (1975) ) according to McManaman et al. and Glicksman et al. (McManaman et al., Developmental Biology 125:311-320(1988); Glicksman et al., J. Neurochem., supra.).

SMILES	pIC50 [1]	PKC % Inh. @ 1 uM [2]	pIC50 [3]	PDGFR % Inh. @ 1 μM [4]	Inhibition Score at 100 nM [5]	Inhibition Score at 1000 nM [5]	pIC50 [2]	further results
CC12CCCC(O1)n1c3ccccc3c3c4c(c5c(c31)C2c1ccccc1-5)C(=O)NC4 (single isomer, unassigned) [II-4a]	7.77	(18) %	7.12	(0) %				
CC12CCCC(O1)n1c3ccccc3c3c4c(c5c(c31)C2c1ccccc1-5)C(=O)NC4 (single isomer, unassigned) [II-4b]	6.74	(28) %	7.80	(17) %	0	2 (2=26-49%)		
CC12COCC(O1)n1c3ccccc3c3c4c(c5c(c31)C2c1ccccc1-5)C(=O)NC4 (single isomer, unassigned) [II-7a]	7.06		7.96	(36) %	3 (3=50-75%)	4 (4=76-100%)	6.16	
CC12CCC(O1)n1c3ccc(Br)cc3c3c4c(c5c(c31)C2c1ccccc1-5)C(=O)NC4 (centres unmarked) [II-5]	6.40	(37) %	7.14					pIC50 [4]: 5.97
CC12COCC(O1)n1c3ccccc3c3c4c(c5c(c31)C2c1ccccc1-5)C(=O)NC4 (centres unmarked) [II-7b]	6.59		8.30		3 (3=50-75%)	4 (4=76-100%)	6.25	inhibition at 1 µM [4]: 34%
Nc1cccc(-c2ccc3c(c2)c2c4c(c5c6c2n3C2CCC(O2)C6c2ccccc2-5)C(=O)NC4)c1 (centres unmarked) [II-9]	6.50	(5) %						inhibition at 0.3 µM ([3]; 300 nM, values in parentheses): 34%; inhibition at 1 µM [4]: 24%
CCOC(=O)C12CCC(O1)n1c3ccccc3c3c4c(c5c(c31)C2c1ccccc1-5)C(=O)NC4 (centres unmarked) [II-11]	6.69	(19) %	6.92	(15) %				
COc1ccc2c(c1)-c1c3c(c4c5ccccc5n5c4c1C2C1CCC5O1)CNC3=O (centres unmarked) [II-13]	8.10						6.24	pIC50 [4]: 5.91

More lines, main results first:

pIC50 [1]	PKC % Inh. @ 1 uM [2]	pIC50 [3]	PDGFR % Inh. @ 1 μM [4]	Inhibition Score at 100 nM [5]	Inhibition Score at 1000 nM [5]	pIC50 [2]	SMILES	further results
7.17							O=C1NCc2c1c1c3c4c2c2ccccc2n4C2CCC(O2)C3c2ccccc2-1 (single isomer, unassigned) [II-1b]	
7.52		7.89		3 (3=50-75%)	4 (4=76-100%)	5.89	O=C1NCc2c1c1c3c4c2c2ccccc2n4C2CCC(O2)C3c2ccccc2-1 (centres unmarked) [II-1]	Spinal Cord ChAT Activity at 30 nM (Spinal Cord ChAT; 30 nM, active if at least 120% of control): 114 % control; Spinal Cord ChAT Maximal Activity (Spinal Cord ChAT; concentration of maximal activity printed in cell (300 nM)): 139 @ 300 nM % control; pIC50 [4]: 5.86
< 5.00	(−9) %						CCC12c3ccccc3-c3c4c(c5c6ccccc6n(c5c31)C1CCC2O1)CNC4=O (centres unmarked) [II-2]	inhibition at 0.3 µM ([3]; 300 nM, values in parentheses): 20%; inhibition at 1 µM [4]: 7%
7.15	(23) %	8.05	(28) %	1 (1=1-25%)	4 (4=76-100%)		CC12CCC(O1)n1c3ccccc3c3c4c(c5c(c31)C2c1ccccc1-5)C(=O)NC4 (centres unmarked) [II-3]	
7.59		6.60				5.97	O=C1NCc2c3c4c5c(c21)c1ccccc1n5C1CCC(O1)C4c1ccccc1-3 (centres unmarked) [II-8]	inhibition at 1 µM [4]: 15%
6.22	(5) %		(23) %				O=C1NC(=O)c2c1c1c3c4c2c2ccccc2n4C2CCC(O2)C3(O)c2ccccc2-1 (centres unmarked) [II-10]	trkA % inh @ 300 nM ([3]; 300 nM, values in parentheses): (17) %
7.70		7.77				6.29	O=C1NCc2c1c1c3c4c2c2ccccc2n4C2CCC(CO)(O2)C3c2ccccc2-1 (centres unmarked) [II-12]	pIC50 [4]: 6.90
